Results reported in ChEMBL document CHEMBL1165876, “Novel bis-phenanthridine derivatives with easily tunable linkers, study of their interactions with DNA and screening of antiproliferative activity” (Eur J Med Chem, 2010).
In brackets after ≈: the same amount, converted by molar mass.

Legend:
[1] = Solubility in water; format: physicochemical
Calf thymus DNA [2] = assay: Binding affinity to calf thymus DNA assessed as change in melting temperature in citric acid/NaOH buffer ayt pH 5 at [compound]/[DNA] ratio of 0.2 by tangent method; format: nucleic-acid assay; conditions: Bos taurus
Calf thymus DNA [3] = assay: Binding affinity to calf thymus DNA assessed as change in melting temperature in citric acid/NaOH buffer ayt pH 5 at [compound]/[DNA] ratio of 0.3 by tangent method; format: nucleic-acid assay; conditions: Bos taurus
Calf thymus DNA [4] = assay: Binding affinity to calf thymus DNA assessed as fluorescence quenching at pH 5 by fluorimetric titration; format: nucleic-acid assay; conditions: Bos taurus
Calf thymus DNA [5] = assay: Binding affinity to calf thymus DNA assessed as change in melting temperature in citric acid/NaOH buffer ayt pH 5 at [compound]/[DNA] ratio of 0.1 by tangent method; format: nucleic-acid assay; conditions: Bos taurus
HeLa = assay: Cytotoxicity against human HeLa cells after 72 hrs by MTT assay; format: functional, cell-based
SW-620 = assay: Cytotoxicity against human SW620 cells after 72 hrs by MTT assay; format: functional, cell-based; conditions: SW-620, 72 h
NCI-H460 = assay: Cytotoxicity against human H460 cells after 72 hrs by MTT assay; format: functional, cell-based; conditions: NCI-H460, 72 h
MIA PaCa-2 = assay: Cytotoxicity against human MIAPaCa2 cells after 72 hrs by MTT assay; format: functional, cell-based; conditions: MIA PaCa-2, 72 h
MCF7 = assay: Cytotoxicity against human MCF7 cells after 72 hrs by MTT assay; format: functional, cell-based; conditions: MCF7, 72 h
Calf thymus DNA [6] = assay: Binding affinity to calf thymus DNA assessed as fluorescence quenching at pH 7 by fluorimetric titration; format: nucleic-acid assay; conditions: Bos taurus

SMILES	solubility [1] [µM]	ΔTm (Calf thymus DNA [2]) [°C]	ΔTm (Calf thymus DNA [3]) [°C]	log Ks (Calf thymus DNA [4])	ΔTm (Calf thymus DNA [5]) [°C]	IC50 (HeLa) [µM]	IC50 (SW-620) [µM]	IC50 (NCI-H460) [µM]	IC50 (MIA PaCa-2) [µM]	IC50 (MCF7) [µM]	log Ks (Calf thymus DNA [6])
Cc1nc2ccccc2c2ccc(C[C@H](NC(=O)[C@@H](N)Cc3ccc4c(c3)c(C)nc3ccccc34)C(=O)O)cc12	1000 (≈ 543 µg/mL)	11	11.3	6.7	8.6	–	–	–	–	–	–
Cc1nc2ccccc2c2ccc(C[C@H](N)C(=O)O)cc12	1000 (≈ 280 µg/mL)	–	4	–	–	> 100	> 100	> 100	> 100	> 100	–
Cc1nc2ccccc2c2ccc(C[C@H](NC(=O)CN)C(=O)O)cc12	1000 (≈ 337 µg/mL)	8.1	11.1	5.5	6.5	–	–	–	–	–	4.7
Cc1nc2ccccc2c2ccc(C[C@H](NC(=O)CNC(=O)[C@@H](N)Cc3ccc4c(c3)c(C)nc3ccccc34)C(=O)O)cc12	1000 (≈ 600 µg/mL)	16.5	18.4	–	14.3	> 100	> 100	> 100	> 100	> 100	–
